Experiments:
guinea pig right atrium = assay: Assay of cardiotonic action (tension and heart rate of suspended right atrium specimens); settings: assay (2); purified compound I from porcine aortic endothelial cell culture supernatant
Protocol: Instead of the porcine right coronary artery spiral specimens used in the assay described in the above item (1), guinea pig right atrium suspended specimens are used, and the tension and the heart rate per minute are measured according to the same procedure as described in (1). (3) ED50
(§1) The activity of the compound I obtained in 2 (iii) above was assayed by the method of Reference Example (1) and (2).

[1] = tested on: porcine right coronary artery; assay: Assay of vascular smooth muscle constrictor activity (isometric tension of intima-denuded artery spiral specimens); settings: assay (1); purified compound I from porcine aortic endothelial cell culture supernatant; Krebs-Ringer solution, 37° C.
Protocol: Porcine right coronary artery spiral specimens (2×20 mm) with the intima denuded by rubbing with a small swab are suspended in 3 ml of Krebs-Ringer solution maintained at 37° C. and saturated with the mixed gas containing 5% carbon dioxide and 95% oxygen by volume. After setting the basal tension to 1 g, the isometric tension is measured with tension transducers.
as §1

SMILES: CC[C@H](C)[C@H](NC(=O)[C@H](CC(=O)O)NC(=O)[C@H](CC(C)C)NC(=O)[C@H](Cc1c[nH]cn1)NC(=O)[C@@H]1CSSC[C@H](N)C(=O)N[C@@H](CO)C(=O)N[C@H]2CSSC[C@H](NC(=O)[C@H](CCC(=O)O)NC(=O)[C@H](CCCCN)NC(=O)[C@H](CC(=O)O)NC(=O)[C@H](CCSC)NC(=O)[C@H](CC(C)C)NC(=O)[C@H](CO)NC(=O)[C@H](CO)NC2=O)C(=O)N[C@@H](C(C)C)C(=O)N[C@@H](Cc2ccc(O)cc2)C(=O)N[C@@H](Cc2ccccc2)C(=O)N1)C(=O)N[C@H](C(=O)N[C@@H](Cc1c[nH]c2ccccc12)C(=O)O)[C@@H](C)CC [compound I]
- ED50 for cardiotonic action to guinea pig right atrium (guinea pig right atrium): 1 nM
- ED50 for smooth muscle constrictor activity to porcine coronary artery [1]: 4 to 5×10^-10 mole/l

— patent US4981950A, “Vasoconstrictor peptide” (Takeda Chemical Ind., Ltd., priority 1987, dated 1991)
